Experimental data reported in patent US20090043123A1, “Dilute Stabilized Peracetic Acid Production and Treatment Process” (priority 2007, published 2009).

What was measured:
[1] = cited from earlier work
[2] = Stability/decomposition of peracetic acid formed in buffered aqueous medium (Example 1, FIG. 4); format: physicochemical; details: 25° C.
Excerpt: The mole ratio of hydrogen peroxide to acetic anhydride used in this Example 1 was 5.7 moles H2O2 per mole of acetic anhydride, a mole ratio that provided a large stoichiometric excess of hydrogen peroxide. Three pH values were used: 10.0, 6.8 and 4.5. The aqueous medium in each study was appropriately buffered to maintain the specific pH value throughout the duration of the run.
In each of the three runs, the operating procedure was as follows. A dilute aqueous buffered hydrogen peroxide solution, containing 585 ppm H2O2, was prepared and maintained at a temperature of 25° C. No hydrogen peroxide stabilizers were added to the solution. Acetic anhydride, undiluted (i.e., 100%) and in an amount sufficient to provide the desired 5.7:1 mole ratio of H2O2:acetic anhydride, was added to the buffered hydrogen peroxide solution. Measurements of peracetic acid and hydrogen peroxide concentrations were obtained from samples taken periodically over a period of 180 minutes. Results of these three studies, as peracetic acid concentration vs. time, are plotted in the graph shown as FIG. 4.

[3] = aqueous solution; cited from earlier work
[4] = tested on: microorganisms; details: as low as 1 or 2 ppm peracetic acid; cited from earlier work

Row | Compound | solubility in water [1] | peracetic stability ([2]; pH 6.8, buffered aqueous medium, 5.7:1 H2O2:acetic anhydride, followed over 180 minutes) | decomposition of the peracetic acid formed ([2]; pH 10.0, buffered aqueous medium, after peracetic acid formation was complete) | acid dissociation constant (pKa) [3] | activity at very low concentrations [4]
1 | CC(=O)OC(C)=O [Acetic anhydride] | less than 3 wt % | – | – | – | –
2 | Peracetic acid | – | relatively good | high | 8.2 | very active
